This passage reports Ki results from patent publication US7528138B2, “Pyrazolo[1,5-a]pyrimidines useful as inhibitors of protein kinases” (Vertex Pharmaceuticals Incorporated, priority 2004, dated 2009).

The Ki is a dissociation constant, usually derived from enzyme kinetics or from competition with a known ligand.

This experiment has as its target Aurora-B (Homo sapiens, UniProt Q96GD4). The experiment can be described thus: Aurora B (Aurora-1) Inhibition Assay, 33P incorporation. Format: biochemical. The conditions noted are these: enzyme inhibition data (Ki), Table 11; read-out: AurB Ki. How it is done:
An assay buffer solution is prepared which consists of 25 mM HEPES (pH 7.5), 10 mM MgCl2, 0.1% BSA and 10% glycerol. A 22 nM Aurora-B solution, also containing 1.7 mM DTT and 1.5 mM Kemptide (LRRASLG), is prepared in assay buffer. To 22 μL of the Aurora-B solution, in a 96-well plate, is added 2 μl of a compound stock solution in DMSO and the mixture is allowed to equilibrate for 10 minutes at 25° C. The enzyme reaction is initiated by the addition of 16 μl stock [γ-^33P]-ATP solution (˜20 nCi/μL) prepared in assay buffer, to a final assay concentration of 800 μM. The reaction is stopped after 3 hours by the addition of 16 μL 500 mM phosphoric acid and the levels of ^33P incorporation into the peptide substrate is determined by the following method.
A phosphocellulose 96-well plate (Millipore, Cat no. MAPHNOB50) is pre-treated with 100 μL of a 100 mM phosphoric acid prior to the addition of the enzyme reaction mixture (40 μL). The solution is left to soak on to the phosphocellulose membrane for 30 minutes and the plate subsequently is washed four times with 200 μL of a 100 mM phosphoric acid. To each well of the dry plate is added 30 μL of Optiphase ‘SuperMix’ liquid scintillation cocktail (Perkin Elmer) prior to scintillation counting (1450 Microbeta Liquid Scintillation Counter, Wallac). Levels of non-enzyme catalysed background radioactivity are determined by adding 16 μL of the 500 mM phosphoric acid to control wells, containing all assay components (which acts to denature the enzyme), prior to the addition of the [γ-^33P]-ATP solution. Levels of enzyme catalysed ^33P incorporation are calculated by subtracting mean background counts from those measured at each inhibitor concentration. For each Ki determination 8 data points, typically covering the concentration range 0-10 μM compound, are obtained in duplicate (DMSO stocks are prepared from an initial compound stock of 10 mM with subsequent 1:2.5 serial dilutions). Ki values are calculated from initial rate data by non-linear regression using the Prism software package (Prism 3.0, Graphpad Software, San Diego, Calif.).

Chain of Aurora-B (Q96GD4 whole entry): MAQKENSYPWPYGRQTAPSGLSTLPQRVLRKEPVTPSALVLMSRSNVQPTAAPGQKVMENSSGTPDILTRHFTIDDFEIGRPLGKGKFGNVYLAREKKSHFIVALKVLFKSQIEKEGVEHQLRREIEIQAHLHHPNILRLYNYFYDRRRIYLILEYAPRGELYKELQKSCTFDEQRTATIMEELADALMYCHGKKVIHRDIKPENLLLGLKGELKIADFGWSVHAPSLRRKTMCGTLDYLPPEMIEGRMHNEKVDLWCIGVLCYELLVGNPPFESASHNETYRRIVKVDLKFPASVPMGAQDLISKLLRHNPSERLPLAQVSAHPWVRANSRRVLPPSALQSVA

Take `Cc1cnc2c(-c3cc(NC(C)C)ncn3)c(N)nn2c1` [Compound V-273]: the Ki lay in the range of 500 to 5000 nM.
For `COc1ccccc1Nc1cc(-c2c(N)nn3cc(C)cnc23)ncn1` [Compound V-274] the value was 500 to 5000 nM.
